Assay results reported in US11731955B2, “Crystal habit of quinoline derivative and preparation method for crystalline powder thereof” (CHIA TAI TIANQING PHARMACEUTICAL GROUP CO., LTD, priority 2018, dated 2023).
Counter-ions that a name gives are not always drawn.

Tests used:
Assay type in all cases: physicochemical
[1] = Specific surface area by multipoint BET measurement; conditions: for A (specific surface area): pulverized powders, dihydrochloride
Description: In the present application, the specific surface area A used herein refers to the total area per unit mass (m^2/g), as determined by multipoint BET specific surface area measurement.
The specific surface area was determined by multipoint BET specific surface area measurement, in which the absolute adsorption quantity of nitrogen in a sample was measured under different partial pressures, and the single-layer adsorption quantity was calculated by the BET theory, thus giving the specific surface area.

[2] = Determination of solubility (saturation concentration); conditions: for solubility thermodynamic at 24 h: aqueous buffer, thermodynamic from solid, shaker at 37° C.
Description: 14.16 mg of the crystalline powder of the compound of the formula II acquired in Example 1 was dissolved, shaken overnight (24 hours) on a shaker at 37° C. and cooled to room temperature. The saturation concentration was measured using the supernatant. As a result, the saturation concentrations in the phosphoric acid solutions at pH 6.8 and 7.0 for 24 hours were 0.8 and 0.3 μg/mL, respectively.

[3] = Dissolution properties of powders by basket method; conditions: 100 rpm, dihydrochloride; for Cumulative dissolution % (0.1 mol/L hydrochloric acid): 1000 mL
Description: The dissolution properties of powders 1 and 2 in 1000 mL of 0.1 mol/L aqueous hydrochloric acid solution and a standard medium of 10 mM phosphate buffer containing 0.075% SDS, pH 6.8 were measured by basket method at 100 rpm and compared.

[4] = Particle-size distribution by laser particle size analyzer; conditions: laser particle-size distribution of pulverized powders; dihydrochloride
Excerpt: “X10” as used herein refers to the particle size for 10% of the particles in the particle size distribution, i.e., the fraction of particles smaller than this particle size accounts for 10% of all particles; “X50” refers to the particle size for 50% of the particles in the particle size distribution, i.e., the fraction of particles smaller than this particle size accounts for 50% of all particles; “X90” refers to a particle size for 90% of the particles in the particle size distribution, i.e., the fraction of particles smaller than this particle size accounts for 90% of all particles.
The particle-size distribution of the materials was determined by laser. Instrument: fully automatic dry and wet two-in-one laser particle size analyzer, VIBRI (HELOSBR).

specific surface area ([1]; bulk crystal recrystallized in ethanol (Comparative Example 1)) [m^2/g]	Biopharmaceutical Classification System (BCS) solubility classification [2]	solubility thermodynamic at 24 h ([2]; phosphoric acid solution pH 6.8, 24 hours) [µg/mL]	solubility thermodynamic at 24 h ([2]; phosphoric acid solution pH 7.0, 24 hours) [µg/mL]	A (specific surface area) [1] [m^2/g]	Cumulative dissolution % (10 mM phosphate buffer containing 0.075% SDS, pH 6.8) ([3]; 3 min) [%]	Cumulative dissolution % (0.1 mol/L hydrochloric acid) ([3]; 3 min) [%]	Cumulative dissolution % (10 mM phosphate buffer containing 0.075% SDS, pH 6.8) ([3]; 5 min) [%]	Cumulative dissolution % (0.1 mol/L hydrochloric acid) ([3]; 5 min) [%]	X50 [4] [μm]	X90 [4] [μm]	Compound
3.4750											COc1cc2c(Oc3ccc4[nH]c(C)cc4c3F)ccnc2cc1OCC1(N)CC1 [Anlotinib dihydrochloride, reference compound]
	low solubility	0.8	0.3								COc1cc2c(Oc3ccc4[nH]c(C)cc4c3F)ccnc2cc1OCC1(N)CC1 [Example 1, Anlotinib dihydrochloride]
				11.09 ± 0.04	77.4	89.6	90.2	94.2	3.96	64.89	COc1cc2c(Oc3ccc4[nH]c(C)cc4c3F)ccnc2cc1OCC1(N)CC1 [Powder 1, Anlotinib dihydrochloride]
				13.07 ± 0.05	80.1	93.7	86.4	95.8	2.66	14.01	COc1cc2c(Oc3ccc4[nH]c(C)cc4c3F)ccnc2cc1OCC1(N)CC1 [Powder 2, Anlotinib dihydrochloride]
